Test results from ChEMBL document CHEMBL1143240, “Inhibiting dihydrodipicolinate synthase across species: towards specificity for pathogens?” (Bioorg Med Chem Lett, 2008).
The source made the active and inactive calls. No cut-off for these calls is given here.

Key:
Escherichia coli [1] = assay: Inhibition of Escherichia coli DHDPS at 20 mM
[2] = biological target: T1, Dihydrodipicolinate synthase (Bacillus anthracis) (UniProt A0A6L7H340); assay: Inhibition of Bacillus anthracis DHDPS at 20 mM
T1 sequence (whole entry): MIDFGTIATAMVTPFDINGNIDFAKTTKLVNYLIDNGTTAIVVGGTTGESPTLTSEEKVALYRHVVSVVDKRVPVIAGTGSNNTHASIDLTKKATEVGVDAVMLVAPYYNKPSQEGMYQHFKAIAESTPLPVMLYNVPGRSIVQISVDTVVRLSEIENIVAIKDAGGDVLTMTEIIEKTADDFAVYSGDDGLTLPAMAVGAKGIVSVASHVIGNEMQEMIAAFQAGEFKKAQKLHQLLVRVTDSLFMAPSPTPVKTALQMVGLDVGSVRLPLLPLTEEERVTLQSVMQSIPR

[3] = biological target: 4-hydroxy-tetrahydrodipicolinate synthase (Mycobacterium tuberculosis) (UniProt P9WP25); assay: Inhibition of Mycobacterium tuberculosis DHDPS at 20 mM
Staphylococcus aureus = assay: Inhibition of methicillin-resistant Staphylococcus aureus DHDPS at 20 mM
Escherichia coli [4] = assay: Inhibition of Escherichia coli NAL at 20 mM
Escherichia coli [5] = assay: Antibacterial activity against Escherichia coli at 20 uM relative to control; format: functional, organism-based
[6] = Inhibition of Escherichia coli DHDPS

SMILES | inhibition (Escherichia coli [1]) | inhibition [2] | inhibition [3] | inhibition (Staphylococcus aureus) | inhibition (Escherichia coli [4]) | Activity (Escherichia coli [5]) | Ki [6]
O=C(O)c1cc(=O)cc(C(=O)O)[nH]1 | 74% | 0% | 73% | 83% | 27% | Active | –
COC(=O)[C@@H]1C[S+]([O-])C[C@@H](C(=O)OC)N1 (some centres undefined) | 0% | 7% | 0% | 7% | 7% | – | –
N[C@@H](CC=O)C(=O)O | – | – | – | – | – | – | 14 mM
COC(=O)[C@@H]1CSC[C@H](C(=O)OC)N1 | 35% | 23% | 0% | 0% | 1% | – | –
O=C(O)c1cccc(C(=O)O)n1 | 76% | 80% | 75% | 67% | 1% | – | –
COC(=O)[C@@H]1CS(=O)(=O)C[C@@H](C(=O)OC)N1 | 14% | 6% | 7% | 0% | 0% | – | –
COC(=O)[C@@H]1C[S@@+]([O-])C[C@H](C(=O)OC)N1 | 8% | 8% | 1% | 10% | 0% | – | –
COC(=O)[C@@H]1CSC[C@@H](C(=O)OC)N1 | 12% | 19% | 0% | 0% | 0% | – | –
CC(=O)C(=O)O [PYRUVATE] | – | – | – | – | – | – | 7 mM
COC(=O)c1cccc(C(=O)OC)n1 | 5% | 13% | 0% | 0% | 0% | – | –
COC(=O)[C@@H]1CCC[C@H](C(=O)OC)N1 | 92% | 99% | 24% | 58% | 18% | – | –
O=C(O)[C@@H]1CCC[C@H](C(=O)O)N1 | 49% | 73% | 43% | 51% | 21% | – | –
COC(=O)[C@@H]1CS(=O)(=O)C[C@H](C(=O)OC)N1 | 0% | 19% | 6% | 0% | 3% | inactive | –
COC(=O)c1cc(=O)cc(C(=O)OC)[nH]1 | 85% | 0% | 84% | 88% | 64% | – | –
COC(=O)[C@@H]1C[S@+]([O-])C[C@H](C(=O)OC)N1 | 20% | 22% | 14% | 12% | 38% | – | –
